{"source": "patent US4298735A", "about": "“Folic acid derivatives” (Union Carbide Corporation, priority 1979, dated 1981)", "key": {"[1]": {"tested_on": "carboxypeptidase A", "assay": "Enzymatic hydrolysis of pteroyltyrosine followed by UV", "format": "biochemical", "conditions": "0.025 M Tris-HCl, 2 mM zinc chloride, pH 7.3, two hours, ambient temperature", "description": "Two milliliters of a solution of pteroyltrosine (0.75 mmoles/ml) in 0.025 M Tris-HCl containing 2 mM zinc chloride, pH 7.3 were diluted to 10 ml with distilled water. A portion of this solution (2 ml) was placed in a 1 cm cuvette and in another was placed 2 ml of distilled water. To each of the cuvettes was added 50 μl of a solution of 100 μl carboxypeptidase A suspension (Aldrich chemical, lot 060637) diluted with 0.9 ml of 10% lithium chloride.\nThe time course of the reaction was followed spectrophotometrically (uv) over a period of two hours at ambient temperature. An increase and shift in max from 280 to 277 nm and a marked decrease in absorption at 220 nm was observed. Two isosbestic points at 242 and 282 nm were visible."}, "[2]": {"target": "whole milk folate binder (Bos taurus, UniProt P02702)", "sequence (P02702 20-234)": "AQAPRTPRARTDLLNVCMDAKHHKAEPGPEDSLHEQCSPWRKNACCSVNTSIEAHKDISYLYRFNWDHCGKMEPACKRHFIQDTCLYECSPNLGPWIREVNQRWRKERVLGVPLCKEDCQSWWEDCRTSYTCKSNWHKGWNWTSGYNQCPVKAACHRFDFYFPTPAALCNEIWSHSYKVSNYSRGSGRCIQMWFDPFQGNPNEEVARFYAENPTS", "assay": "Folate competitive protein binding (CPB) radioassay", "conditions": "for dose response curves generated using pteroyltyrosine [125I] as label: at high pH compared with lower pH", "description": "The use of the Centria® analytical system, Union Carbide Corporation, in this example, is meant to be illustrative and other methods, both automated and manual, obvious to those skilled in the clinical diagnostic art are also within the scope of this invention.\nBriefly, the Centria® system is a tri-modular instrument in which reagents are pipetted on to a multi-well transfer disk and mixed centrifugally with standards or patients' samples. After a suitable incubation period, the components are separated by a centrifugal elution of the bound and free fractions and the bound fractions counted three at a time.\nFolic acid and N^5 -methyltetrahydrofolic acid standards in the range 0-20 nanograms/milliliter were prepared in 0.05 M sodium borate, pH 9.3 containing 0.1% human serum albumin. The whole milk binder was prepared according to the method of Rothenberg et al., ^(3) and dissolved in sodium borate, pH 9.3 containing 0.1% human serum albumin\n(50 microliters, 20,000 cpm) plus 85 microliters of water with the limited number of binding sites contained in a 200 microliter solution of whole milk folate binder. The binding reactions may be shown as follows:\nA gamma counter which counts three of the 36 positions at a time for one minute, so constructed that only the eluate bottom portion of the test tubes fits into the counter, was then used to count all samples. Sequential counting of the tubes thus required about 12 minutes. A small computer with printout capability then printed out the data after completion of the cycle."}, "[3]": {"assay": "Storage stability of the radioiodinated label", "format": "physicochemical", "conditions": "stored in a 50% aqueous propylene glycol solution, ten-week period", "description": "Radioiodination of biological compounds frequently leads to marked chemical instability and subsequent degradation of the radiolabel. This problem is often accentuated in the radiolabel when the materials to be radioiodinated are known to be sensitive to oxygen, light or extremes in pH, as is the case with folic acid and some derivatives.\nThe reaction mixture was applied to a 1×20 cm Sephadex G25, fine, (Pharmacia Fine Chemicals, Uppsala, Sweden) column hydrated with distilled water and equilibrated with 0.1 M potassium phosphate, pH 7.5. The column was eluted with 0.1 M potassium phosphate buffer and 3 ml fractions collected. The product \"peak\" fractions 32-34 were collected, diluted 1:1 with propylene glycol and stored below 0° C."}}}
{"smiles": "Nc1nc2ncc(CNc3ccc(C(=O)N[C@@H](Cc4ccc(O)cc4)C(=O)O)cc3)nc2c(=O)[nH]1", "note": "[pteroyltyrosine, Pteroyl-L-Tyrosine]", "values": [{"measurement": "hydrolysis by carboxypeptidase A (UV time course, final spectrum)", "setting": "[1]", "result": "final spectrum was very similar to that of pteroic acid"}]}
{"smiles": "Nc1nc(O)c2nc(CNc3ccc(C(=O)N[C@@H](Cc4ccc(O)c([125I])c4)C(=O)O)cc3)cnc2n1", "note": "[pteroyltyrosine [^125 I]]", "values": [{"measurement": "performance as radiolabel in CPB radioassay for folic acid", "setting": "[2]; folic acid concentration range of 0-20 ng/ml", "result": "effective radiolabel"}, {"measurement": "stability of radioiodinated product (assay performance on storage)", "setting": "[3]", "result": "no deterioration in assay performance"}]}
{"smiles": "Nc1nc2ncc(CNc3ccc(C(=O)N[C@@H](CCC(=O)O)C(=O)O)cc3)nc2c(=O)[nH]1", "note": "[folic acid]", "values": [{"measurement": "dose response curves generated using pteroyltyrosine [125I] as label", "setting": "[2]", "result": "more nearly coincident"}]}
{"smiles": "CN1c2c(nc(N)[nH]c2=O)NCC1CNc1ccc(C(=O)N[C@@H](CCC(=O)O)C(=O)O)cc1", "note": "(some centres unmarked) [N^5 -methyl THF, N-5-methyltetrahydrofolic acid]", "values": [{"measurement": "dose response curves generated using pteroyltyrosine [125I] as label", "setting": "[2]", "result": "more nearly coincident"}]}
